In one experiment the target is T1, ITK (Homo sapiens, UniProt Q08881).
T1 sequence (Q08881 1-620): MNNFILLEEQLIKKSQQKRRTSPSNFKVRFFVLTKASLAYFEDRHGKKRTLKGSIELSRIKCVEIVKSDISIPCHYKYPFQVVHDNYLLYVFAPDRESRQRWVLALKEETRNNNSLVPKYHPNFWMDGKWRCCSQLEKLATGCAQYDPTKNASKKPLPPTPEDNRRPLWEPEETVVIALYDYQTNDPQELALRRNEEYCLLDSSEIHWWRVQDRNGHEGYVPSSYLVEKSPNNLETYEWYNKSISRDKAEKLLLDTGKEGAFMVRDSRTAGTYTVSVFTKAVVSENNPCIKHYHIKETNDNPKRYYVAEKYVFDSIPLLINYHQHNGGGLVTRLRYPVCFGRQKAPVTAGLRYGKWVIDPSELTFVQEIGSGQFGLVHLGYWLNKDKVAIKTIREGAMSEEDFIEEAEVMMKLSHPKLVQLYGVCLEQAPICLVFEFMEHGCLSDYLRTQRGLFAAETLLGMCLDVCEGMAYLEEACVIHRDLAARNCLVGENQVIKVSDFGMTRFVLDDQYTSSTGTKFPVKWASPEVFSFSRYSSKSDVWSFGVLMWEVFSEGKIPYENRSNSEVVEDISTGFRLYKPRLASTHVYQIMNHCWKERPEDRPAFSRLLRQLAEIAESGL
The experiment is described as follows: ITK inhibitor binding potency (LanthaScreen competitive binding assay). As to conditions: TR-FRET competitive binding, 10 nM ITK, 50 nM kinase tracer-236; pre-incubation condition not given; read-out: ITK Inhibition IC50. An excerpt: The ability of candidate compounds to interact with ITK is quantitated by a competitive binding assay using the LanthaScreen technology developed by Life Technologies. This assay is based on the binding of a proprietary, Alexa Fluor™ 647-labeled, ATP-competitive kinase inhibitor (kinase tracer-236) to the ITK expression construct in the presence of a Europium-conjugated antibody, resulting in a FRET (fluorescence resonance energy transfer) signal. Displacement of the kinase tracer by compound results in a lower emission ratio upon excitation of the Europium chelate. Candidate compounds are designed as potential irreversible inhibitors of ITK, capable of ligating to an active site cysteine residue resulting in time dependent covalent binding. The time dependent nature of irreversible inhibition is investigated by performing the binding assay with and without a pre-incubation of compound and ITK. […] The inhibitory potency of candidate compounds is measured in 20 mM HEPES pH 7.5, 10 mM MgCl2, 0.01% BSA, 0.0005% Tween-20, and 2% DMSO in the presence of 10 nM ITK, 2 nM Eu-anti-GST antibody, and 50 nM kinase tracer-236 using a 384-well plate format. Background signal is defined in the absence of ITK and uninhibited signal is defined in the presence of vehicle (2% DMSO) alone. Compounds were evaluated in an 11 point dose-response ranging from 20 uM to 0.34 nM. The binding assays are performed under two preincubation conditions to evaluate time dependence of inhibition. For the pre-incubation assay, ITK and Eu-anti-GST antibody are pre-incubated with compound or vehicle for two hours prior to the addition of kinase tracer. The non-preincubated assay is run under conditions where ITK and Eu-anti-GST antibody are added to a mixture of compound and kinase tracer. IC50 values of compounds are determined using a 4 parameter logistical fit of emission ratio as a function of the concentration of compound.
For orientation: Time-resolved FRET reads energy transfer from a long-lived donor to a nearby acceptor.

In experiment [1] the test system is ITK phosphorylation of its substrate, PLCγ1, at Y783. Description: ITK target modulation assay (phospho-Y783 PLCγ1 immunoblot in Jurkat T cells). It counts as cell-based. As to conditions: 2 hours compound, CD3/CD28 Dynabeads stimulation 100 sec, anti-phospho-Y783 PLCγ1 immunoblot, read-out: PLC-γ Inhibition IC50. How it is done:
Target modulation was based upon the ability of a compound to inhibit ITK phosphorylation of its substrate, PLCγ1, at […]. Human Jurkat T cells were placed in snap-cap polypropylene tubes at 4 million per tube in 800 μL medium (RPMI1640 with 10% heat inactivated serum and […] 2-mercaptoethanol and supplemented with glutamine/penicillin/streptomycin). Compounds were added as 100 μL of 10× working stock solutions in medium with 1% DMSO (or medium with 1% DMSO for controls) and placed in a 37° C. incubator for 2 hours. Stimulation was carried out using CD3/CD28 Dynabeads to activate the T cell receptor and mimic antigen presenting cells. Beads were added for 100 sec at a ratio of 1 bead per cell, in 100 μL medium (or medium alone for unstimulated control). Starting at 70 sec, cells and beads were pelleted in a microfuge for 15 sec, the supernatant aspirated, and 50 μL lysis buffer was added per tube and mixed with the pellet at the 100 sec time point. Tubes were placed on a rotator for 30 min at 4° C., and cell debris was pelleted in a microfuge. Supernatant was mixed 1:1 with 2× Sample Buffer and subjected to SDS-polyacrylamide gel electrophoresis. After transfer to nitrocellulose, immunoblotting was done with anti-phospho-[…] PLCγ1 antibody. Immunoblots were visualized with ECL using horseradish peroxidase conjugated secondary antibody.
In general terms: In western blotting, separated proteins are transferred to a membrane and probed.

Read-outs that look alike come from different tables or passages of the source.

By IC50 is commonly meant the concentration needed to halve the response being measured. Turning to `COc1cc(NC(=O)/C=C/CN(C)C)cc(-c2cnc3[nH]cc(-c4cccc(C#N)c4)c3c2)c1` [Example 19, (E)-N-(3-(3-(3-cyanophenyl)-1H-pyrrolo[2,3-b]-pyridin-5-yl)-5-methoxyphenyl)-4-(dimethyl-amino)but-2-enamide], the half-inhibitory concentration (IC50) is no more than 100 nM at ITK and no more than 1000 nM in experiment [1] (Homo sapiens, Jurkat, 2 h).

Turning to `CN(C)C/C=C/C(=O)Nc1cncc(-c2cnc3[nH]cc(-c4cccc(C#N)c4)c3c2)c1` [Example 20, (E)-N-(5-(3-(3-cyanophenyl)-1H-pyrrolo[2,3-b]pyridin-5-yl)pyridin-3-yl)-4-(dimethyl-amino)but-2-enamide], the IC50 at ITK was no more than 100 nM; in experiment [1] (Homo sapiens, Jurkat, 2 h), no more than 1000 nM.

As for `C=CC(=O)Nc1cc(-c2cnc3[nH]cc(-c4ccnc(C#N)c4)c3c2)cc(-c2cnn(C)c2)c1` [Example 21, N-(3-(3-(2-cyano-pyridin-4-yl)-1H-pyrrolo[2,3-b]pyridin-5-yl)-5-(1-methyl-1H-pyrazol-4-yl)-phenyl)acrylamide], the concentration for half-maximal inhibition (IC50) on ITK is no more than 100 nM; in experiment [1] (Homo sapiens, Jurkat, 2 h), no more than 1000 nM.

As for `C=CC(=O)Nc1cc(-c2cnc3[nH]cc(-c4ccncn4)c3c2)cc(C(F)(F)F)c1` [Example 22, N-(3-(3-(pyrimidin-4-yl)-1H-pyrrolo-[2,3-b]pyridin-5-yl)-5-(trifluoro-methyl)phenyl)-acrylamide], the IC50 at ITK was no more than 100 nM; in experiment [1] (Homo sapiens, Jurkat, 2 h) it was no more than 1000 nM.

For the molecule `C=CC(=O)Nc1cc(-c2cnc3[nH]cc(-c4ccnc(C)c4)c3c2)cc(C(F)(F)F)c1` [Example 23, N-(3-(3-(2-methyl-pyridin-4-yl)-1H-pyrrolo[2,3-b]-pyridin-5-yl)-5-(trifluoromethyl)-phenyl)acrylamide], the concentration for half-maximal inhibition (IC50) is no more than 100 nM at ITK and no more than 1000 nM in experiment [1] (Homo sapiens, Jurkat, 2 h).

Regarding `C=CC(=O)Nc1cccc(-c2cnc3[nH]cc(-c4cncc(NC)c4)c3c2)c1` [Example 24, N-(3-(3-(5-(methylamino)-pyridin-3-yl)-1H-pyrrolo[2,3-b]-pyridin-5-yl)-phenyl)acrylamide], the IC50 is no more than 100 nM on ITK and no more than 1000 nM in experiment [1] (Homo sapiens, Jurkat, 2 h).

As to `C=CC(=O)Nc1cc(-c2cnc3[nH]cc(-c4ccnc5[nH]ccc45)c3c2)cc(C(F)(F)F)c1` [Example 25, N-(3-(1H,1′H-[3,4′-bipyrrolo-[2,3-b]pyridin]-5-yl)-5-(trifluoro-methyl)phenyl)-acrylamide], the IC50 on ITK is no more than 1000 nM; in experiment [1] (Homo sapiens, Jurkat, 2 h) it was no more than 1000 nM.

Consider `C=CC(=O)Nc1cc(OC)cc(-c2cnc3[nH]cc(-c4ccnc(OC)c4)c3c2)c1` [Example 26, N-(3-methoxy-5-(3-(2-methoxy-pyridin-4-yl)-1H-pyrrolo[2,3-b]-pyridin-5-yl)-phenyl)acrylamide], for which the IC50 at ITK was no more than 100 nM; in experiment [1] (Homo sapiens, Jurkat, 2 h), no more than 1000 nM.

`CNc1nccc(-c2c[nH]c3ncc(-c4cccc(NC(=O)/C=C/CN(C)C)c4)cc23)n1` [Example 27, (E)-4-(dimethyl-amino)-N-(3-(3-(2-(methylamino)-pyrimidin-4-yl)-1H-pyrrolo[2,3-b]pyridin-5-yl)phenyl)but-2-enamide]: the concentration for half-maximal inhibition (IC50) at ITK was no more than 100 nM; in experiment [1] (Homo sapiens, Jurkat, 2 h), 1000 to 5000 nM.

`C=CC(=O)Nc1cc(OC)cc(-c2cnc3[nH]cc(-c4ccnc(C)c4)c3c2)c1` [Example 28, N-(3-methoxy-5-(3-(2-methyl-pyridin-4-yl)-1H-pyrrolo[2,3-b]-pyridin-5-yl)-phenyl)acrylamide]: the half-inhibitory concentration (IC50) is no more than 100 nM on ITK and no more than 1000 nM in experiment [1] (Homo sapiens, Jurkat, 2 h).

In the case of `C=CC(=O)Nc1cc(OC)cc(-c2cnc3[nH]cc(-c4ccnc(F)c4)c3c2)c1` [Example 29, N-(3-(3-(2-fluoro-pyridin-4-yl)-1H-pyrrolo[2,3-b]-pyridin-5-yl)-5-methoxyphenyl)-acrylamide], the IC50 is no more than 100 nM on ITK and no more than 1000 nM in experiment [1] (Homo sapiens, Jurkat, 2 h).

Consider `C=CC(=O)Nc1cc(OC)cc(-c2cnc3[nH]cc(-c4ccncn4)c3c2)c1` [Example 30, N-(3-methoxy-5-(3-(pyrimidin-4-yl)-1H-pyrrolo-[2,3-b]pyridin-5-yl)phenyl)-acrylamide], for which the IC50 at ITK is no more than 100 nM; in experiment [1] (Homo sapiens, Jurkat, 2 h) it was no more than 1000 nM.

Turning to `COc1cc(NC(=O)/C=C/CN(C)C)cc(-c2cnc3[nH]cc(-c4ccnc5[nH]ccc45)c3c2)c1` [Example 31, (E)-N-(3-(1H,1′H-[3,4′-bipyrrolo[2,3-b]pyridin]-5-yl)-5-methoxyphenyl)-4-(dimethylamino)-but-2-enamide], the half-maximal inhibitory concentration (IC50) on ITK is no more than 100 nM; in experiment [1] (Homo sapiens, Jurkat, 2 h), no more than 1000 nM.

In the case of `CN(C)C/C=C/C(=O)Nc1cc(-c2cnc3[nH]cc(-c4ccnc(F)c4)c3c2)cc(C(F)(F)F)c1` [Example 32, (E)-4-(dimethyl-amino)-N-(3-(3-(2-fluoropyridin-4-yl)-1H-pyrrolo-[2,3-b]pyridin-5-yl)-5-(trifluoro-methyl)phenyl)-but-2-enamide], the half-inhibitory concentration (IC50) is no more than 100 nM on ITK and no more than 1000 nM in experiment [1] (Homo sapiens, Jurkat, 2 h).

On to `Cc1cc(-c2c[nH]c3ncc(-c4cc(NC(=O)/C=C/CN(C)C)cc(C(F)(F)F)c4)cc23)ccn1` [Example 33, (E)-4-(dimethyl-amino)-N-(3-(3-(2-methylpyridin-4-yl)-1H-pyrrolo-[2,3-b]-pyridin-5-yl)-5-(trifluoro-methyl)phenyl)-but-2-enamide], for which the IC50 at ITK is no more than 100 nM; in experiment [1] (Homo sapiens, Jurkat, 2 h), no more than 1000 nM.

Regarding `C=CC(=O)Nc1cncc(-c2cnc3[nH]cc(-c4ccnc(C#N)c4)c3c2)c1` [Example 34, N-(5-(3-(2-cyano-pyridin-4-yl)-1H-pyrrolo[2,3-b]-pyridin-5-yl)-pyridin-3-yl)-acrylamide], the IC50 was no more than 100 nM at ITK and no more than 1000 nM in experiment [1] (Homo sapiens, Jurkat, 2 h).

For `C=CC(=O)Nc1cc(-c2cnc3[nH]cc(-c4ccnc(C#N)c4)c3c2)cc(C(F)(F)F)c1` [Example 35, N-(3-(3-(2-cyano-pyridin-4-yl)-1H-pyrrolo[2,3-b]-pyridin-5-yl)-5-(trifluoromethyl)-phenyl)acrylamide], the 50% inhibitory concentration (IC50) on ITK is no more than 100 nM; in experiment [1] (Homo sapiens, Jurkat, 2 h) it was no more than 1000 nM.

With `CN(C)C/C=C/C(=O)Nc1cncc(-c2cnc3[nH]cc(-c4ccnc(C#N)c4)c3c2)c1` [Example 36, (E)-N-(5-(3-(2-cyanopyridin-4-yl)-1H-pyrrolo-[2,3-b]pyridin-5-yl)pyridin-3-yl)-4-(dimethyl-amino)but-2-enamide], the figures for the half-maximal inhibitory concentration (IC50) (at ITK; in experiment [1] (Human Jurkat T cells)) were no more than 100 nM and no more than 1000 nM, respectively.

Consider `COc1cc(NC(=O)/C=C/CN(C)C)cc(-c2cnc3[nH]cc(-c4ccnc(C)c4)c3c2)c1` [Example 37], for which the IC50 is no more than 100 nM at ITK and no more than 1000 nM in experiment [1] (Homo sapiens, Jurkat, 2 h).

As to `COc1cc(NC(=O)/C=C/CN(C)C)cc(-c2cnc3[nH]cc(-c4ccnc(F)c4)c3c2)c1` [Example 38, (E)-4-(dimethyl-amino)-N-(3-(3-(2-fluoropyridin-4-yl)-1H-pyrrolo-[2,3-b]pyridin-5-yl)-5-methoxy-phenyl)but-2-enamide], the IC50 at ITK was no more than 100 nM; in experiment [1] (Homo sapiens, Jurkat, 2 h), no more than 1000 nM.
